Data published in patent publication US20090306058A1, “Sulphone Derivatives for Treatment of Cancer” (priority 2005, published 2009).

System: Cells expressing Notch (ALL-SIL, DND-41, HPB-ALL or TALL-1)
Experiment: Assay for Cell Cycle Arrest
Type: cell-based
Details: concentrations up to 10 μM, incubation typically 4-8 days, in comparison to untreated controls
Protocol: Cells expressing Notch (ALL-SIL, DND-41, HPB-ALL or TALL-1) (Weng et al, Science, 306 (2004), 269-71) were incubated in the presence or absence of a compound of the instant invention (e.g. the compound of Examples 2 and 7 below) at concentrations up to 10 μM. At the end of the incubation (typically 4-8 days), the cells were collected, fixed in 70% ethanol on ice for >2 hours, washed, then labelled for 15 min at 37° C. with propidium iodide (0.2 mg/ml) (PI) in the presence of 0.1% Triton X100 and 0.2 mg/ml RNase and subjected to FACS analysis.

Question: How did the “cell cycle populations by FACS (propidium iodide)” value turn out when `CC[C@@H]1C[C@H]2C[C@@](c3cc(F)ccc3F)(S(=O)(=O)c3ccc(C(F)(F)F)cc3)CC[C@H]2NS1(=O)=O` [Example 2, (3R,4aS,6S,8aR)-6-(2,5-difluorophenyl)-3-ethyl-6-{[4-(trifluoromethyl)phenyl]sulfonyl}octahydro-1H-2,1-benzothiazine 2,2-dioxide] was run?
Answer: severe loss of G2- and S-phase populations
